Measurements taken from patent US9840494B2, “Quinazoline derivative” (Tianjin Hemay Oncology Pharmaceutical Co., Ltd., priority 2013, dated 2017).

What was measured:
[1] = MTD assay, single administration to mice; type: in vivo; conditions: ICR male mice, tail intravenous administration, 14 days
Source text: MTD Assay for a Single […] to Mice
1. Experimental Animals: ICR male mice, weighing 19-22 g, were purchased from Beijing Vital River Laboratory Animal Technology Co., Ltd., Animal License No. SCXK (Beijing) 2007-0001
2. Experimental Scheme: 21 mice were divided into nine groups: groups I, IV and VI referred to one mouse per group, groups II, V and IIX referred to four mice per group, and group III, VI and IX referred to two mice per group. Compound 4, compound 2 and compound 12 were dissolved in water for injection. Groups I-III were subjected to tail intravenous administration of compound 4 (N-[4-(3-chloro-4-fluorophenylamino)-7-(2-methoxyethoxy)quinazolin-6yl]-2-[piperidin-4-ylidene]acetamide dihydrochloride) at doses of 100 mg/kg, 150 mg/kg, and 200 mg/kg, respectively. The animal response and the weight change were observed after administration, and these animals were sacrificed after 14 days for anatomical observation. Groups IV-VI were subjected to tail intravenous administration of compound 2 (N-[4-(3-chloro-4-fluorophenylamino)-7-(2-methoxyethoxy)quinazolin-6yl]-2-[1-(2-methoxyethyl)piperidin-4-ylidene]acetamide dihydrochloride) at doses of 100 mg/kg, 150 mg/kg, and 200 mg/kg, respectively. The animal response and the weight change were observed after administration, and these animals were sacrificed after 14 days for anatomical observation. Groups VII-IX were subjected to tail intravenous administration of compound 12 (N-[4-(3-ethynylphenylamino-7-(2-ethoxy)quinazolin-6yl]-2-[1-methylpiperidin-4-ylidene]acetamide dihydrochloride) at doses of 100 mg/kg, 150 mg/kg, and 200 mg/kg, respectively. The animal response and the weight change were observed after administration, and these animals were sacrificed after 14 days for anatomical observation.

[2] = Bioavailability assay in rats, Experiment IV (dimethylsulfonate); type: in vivo
Source text: Experiment IV Bioavailability Assay for N-[4-(3-chloro-4-fluorophenylamino)-7-(2-methoxyethoxy)quinazolin-6-yl]-2-[1-(2-methoxyethyl)piperidin-4-ylidene]acetamide Dimethylsulfonate in Rats
12 SD rats (half of them were male and half of them were female, 7-10 weeks old, weighting 200-350 g) were purchased from Beijing Vital River Laboratory Animal Technology Co., Ltd., and reared in Animal House, GLP Center, Taiping Road No. 27 courtyard. Production License Number of Beijing Vital River Laboratory Animal Technology Co., Ltd. is SCXK (Beijing) 2009-0002.
Blood (about 0.5 ml) was drawn with glass capillary from the orbital venous plexus at […], 1 h, 2 h, 3 h, 4 h, 6 h, 8 h, 12 h, and 24 h after dosing to each group of animals according to the administration scheme, and put into a heparinized centrifuge tube. The tube was gently shaken up and down, then centrifuged at 3000 r/min for […] at 4° C. The plasma was separated. 50 μl of the plasma was pipetted into a centrifuge tube (5 ml), then 50% methanol aqueous solution (50 μl ) and thienorphine-D4 isotope (50 μl) as an internal standard were added thereto and vortexed. A solution of methanol:acetonitrile=1:3 (volume ratio) was added, vortexed for 30 s so as to mix thoroughly. The resulting mixture was centrifuged at 3000 r/min for 5 mM 500 μL of the supernatant was taken out, to which 500 μl of 20% methanol solution was added for serial dilution. The mixture was vortexed for 30 s so as to mix thoroughly. The mixture was centrifuged at 13000 r/min for 5 mM, and […], of the supernatant was injected for LC/MS/MS assay.
Liquid phase conditions: A: aqueous solution (5 mmol/L ammonium acetate, 0.2% formic acid), B: methanol; column temperature 25° C.; injection volume: 10 μL; gradient elution.
MS conditions: ion source: Turbo Ionspray (ESI+); detection mode: MRM; electrical parameters: compound 1: m/z 544.2-457.1, CE (collision energy): 36.5.
The main pharmacokinetic parameters and oral bioavailability results were calculated by using DAS2.0 (statistical moment).
The pharmacokinetic parameters of statistical moments (n=6) for a single intravenous injection of 5.0 mg/kg in rats
The pharmacokinetic parameters of statistical moments (n=6) for a single intragastric administration of 5.0 mg/kg in rats
Method for the calculation of bioavailability: F=(AUCig×Div)/(AUCiv×Dig)×100%
wherein D is dose; AUC: the area under the plasma drug concentration-time curve; ig represents intragastric administration; and iv represents intravenous injection administration.

[3] = SD rats, single intragastric administration of 5.0 mg/kg, n=6
[4] = SD rats, single intravenous injection of 5.0 mg/kg, n=6
[5] = both sexes, rat, plasma, po, SD rats, single intragastric administration of 5.0 mg/kg, n=6
[6] = both sexes, rat, plasma, SD rats, single intravenous injection of 5.0 mg/kg, n=6

In the case of `COCCOc1cc2ncnc(Nc3ccc(F)c(Cl)c3)c2cc1NC(=O)C=C1CCN(CCOC)CC1.Cl.Cl` [Compound 2, N-[4-(3-chloro-4-fluorophenylamino)-7-(2-methoxyethoxy)quinazolin-6yl]-2-[1-(2-methoxyethyl)piperidin-4-ylidene]acetamide dihydrochloride], the Mortality ([1]; 100 mg/kg, 1 animal) was 0%, the “Number of Deaths” value ([1]; 100 mg/kg, 1 animal) was 0 and the Mortality ([1]; 150 mg/kg, 4 animals) was 0%. For the same compound, the “Number of Deaths” value ([1]; 150 mg/kg, 4 animals) was 0, the Mortality ([1]; 200 mg/kg, 2 animals) was 0% and the “Number of Deaths” value ([1]; 200 mg/kg, 2 animals) was 0.
In the case of `COCCOc1cc2ncnc(Nc3ccc(F)c(Cl)c3)c2cc1NC(=O)C=C1CCN(CCOC)CC1.CS(=O)(=O)O` [Compound 3, N-[4-(3-chloro-4-fluorophenylamino)-7-(2-methoxyethoxy)quinazolin-6-yl]-2-[1-(2-methoxyethyl)piperidin-4-ylidene]acetamide dimethylsulfonate], the “F (bioavailability)” value ([2]; SD rats, 5 mg/kg ig vs 5 mg/kg iv) was 57%, the CLz/F [2, 3] was 75.8 mL/min/kg and the t½z [2, 3] was 5.83 h. The CLz [2, 4] was 43.8 mL/min/kg, the t½z [2, 4] was 4.06 h and the bioavailability ([2]; both sexes, SD, rat, plasma, oral, 5 mg/kg, 5 mg/kg ig vs 5 mg/kg iv, read-out: F (bioavailability)) was 56.9%. For the same compound, the AUC(0-inf) [2, 5] was 902 ng·h/mL, the AUC(0-t) [2, 5] was 782 ng·h/mL and the Cmax [2, 5] was 75.2 ng/mL. The Tmax [2, 5] was 3.33 h, the Vd/F ([2]; both sexes, rat, plasma, po, SD rats, single intragastric administration of 5.0 mg/kg, n=6, read-out: Vz/F) was 36.9 L/kg and the AUC(0-inf) [2, 6] was 1460 ng·h/mL. The AUC(0-t) [2, 6] was 1370 ng·h/mL, the Cmax [2, 6] was 1220 ng/mL and the Tmax [2, 6] was 0.02 h. For the same compound, the Vd ([2]; both sexes, rat, plasma, SD rats, single intravenous injection of 5.0 mg/kg, n=6, read-out: Vz) was 15.2 L/kg.
